# Like-named read-outs stand apart in the source and are kept apart here.
# Tests used:
# [1] = tested on: ECHCG (Echinochloa crusgalli, barnyardgrass); experiment: Postemergence foliar-applied weed control, direct seeded rice, greenhouse (Example I); format: in vivo, Echinochloa crusgalli (L.) Beauv.
# Text: Seeds or nutlets of the desired test plant species were planted in a soil matrix prepared by mixing a loam or sandy loam soil (e.g., 28.6 percent silt, 18.8 percent clay, and 52.6 percent sand, with a pH of about 5.8 and an organic matter content of about 1.8 percent) and calcareous grit in an 80 to 20 ratio. The soil matrix was contained in plastic pots with a volume of 1 quart and a surface area of 83.6 square centimeters (cm^2). When required to ensure good germination and healthy plants, a fungicide treatment and/or other chemical or physical treatment was applied. The plants were grown for 8-22 days in a greenhouse with an approximate 14 h photoperiod which was maintained at about 29° C. during the day and 26° C. during the night. Nutrients (Peters Excel® 15-5-15 5-Ca 2-Mg and iron chelate) were applied in the irrigation solution as needed and water was added on a regular basis. Supplemental lighting was provided with overhead metal halide 1000-Watt lamps as necessary. The plants were employed for testing when they reached the first through fourth true leaf stage.
# Treatments consisted of the acid or esters of 4-amino-3-chloro-5-fluoro-6-(4-chloro-2-fluoro-3-methoxy-phenyl)pyridine-2-carboxylic acid (Compound A), each formulated as an SC, and various herbicidal components alone and in combination. Forms of compound A were applied on an acid equivalent basis.
# Other herbicidal components were applied on an active ingredient basis and included acetolactate synthase (ALS)-inhibiting herbicides (sulfonylurea chemical class) azimsulfuron formulated as Gulliver®, bensulfuron-methyl formulated as Londax® 60DF, cyclosulfamuron (technical material), ethoxysulfuron formulated as Sunrice® 15 WDG, flazasulfuron formulated as Katana®, flucetosulfuron formulated as Sukedachi® 1KG G, foramsulfuron formulated as Option®, imazosulfuron formulated as Brazzos® WG, iodosulfuron-methyl-sodium formulated as Hussar®, metsulfuron-methyl formulated as Lorate®, nicosulfuron formulated as Accent®, orthosulfamuron formulated as Strada® WG, primisulfuron-methyl (technical material), propyrisulfuron formulated as Zeta One®, rimsulfuron formulated as Matrix® WG, sulfometuron-methyl formulated as Oust®, and trifloxysulfuron-sodium formulated as Monument® 75WG.
# Treatment requirements were calculated based upon the rates being tested, the concentration of active ingredient or acid equivalent in the formulation, and a 12 mL application volume at a rate of 187 L/ha.
# For treatments comprised of formulated compounds, measured amounts of compounds were placed individually in 25 mL glass vials and diluted in a volume of 1.25% (v/v) Agri-Dex® crop oil concentrated to obtain 12× stock solutions. […] Application solutions were prepared by adding an appropriate amount of each stock solution (e.g., 1 mL) and diluted to the appropriate final concentrations with the addition of 10 mL of an aqueous mixture of 1.25% (v/v) crop oil concentrate so that the final spray solutions contained 1.25+/−0.05% (v/v) Agrcrop oil concentrate.
# For treatments comprised of formulated and technical compounds, weighed amounts of the technical materials were placed individually in 25 mL glass vials and dissolved in a volume of 97:3 v/v acetone/DMSO to obtain 12× stock solutions, and measured amounts of the formulated compounds were placed individually in 25 mL glass vials and diluted in a volume of 1.25% (v/v) crop oil concentrate to obtain 12× stock solutions. […] Application solutions were prepared by adding an appropriate amount of each stock solution (e.g., 1 mL) and diluted to the appropriate final concentrations with the addition of an appropriate amount of an aqueous mixture of 1.5% (v/v) crop oil concentrate so that the final spray solutions contained 1.25% (v/v) crop oil concentrate. […]
# [2] = tested on: BRAPP (Brachiaria platyphylla, broadleaf signalgrass); experiment: as above; format: in vivo, Brachiaria platyphylla (Griseb.) Nash; settings: Urochloa platyphylla, post-emergence
# Summary of the method: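 Greenhouse-grown plants (14 h photoperiod, 29/26 °C day/night) at first to fourth true leaf stage sprayed overhead at 187 L/ha with Compound A (acid equivalent basis) alone or mixed with sulfonylurea ALS inhibitors (active ingredient basis). Final spray contained 1.25% v/v crop oil concentrate; controls received solvent blank.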
structure (smiles),measurement,setting,value
"COC(=O)c1ccccc1CS(=O)(=O)NC(=O)Nc1nc(OC)cc(OC)n1 [Bensulfuron-methyl, methyl 2-[[[[[(4,6-dimethoxy-2-pyrimidinyl)amino]carbonyl]amino]sulfonyl]methyl]benzoate, reference compound]",Visual Weed Control (%) Obs,"[1]; 21 DAA, 17.5 gai/ha",0%
same,Visual Weed Control (%) Obs,"[1]; 21 DAA, 35 gai/ha",0%
same,Visual Weed Control (%) Obs,"[1]; 27 DAA, 4.38 gai/ha",0%
same,Visual Weed Control (%) Obs,"[1]; 27 DAA, 8.75 gai/ha",0%
same,Visual Weed Control (%) Obs,"[1]; 27 DAA, 17.5 gai/ha",0%
same,pest or weed control at 4.38 g/ha,"[2]; 504 h, 21 DAA, 4.38 gai/ha, read-out: Visual Weed Control (%) Obs",0%
same,pest or weed control at 8.75 g/ha,"[2]; 504 h, 21 DAA, 8.75 gai/ha, read-out: Visual Weed Control (%) Obs",0%
same,pest or weed control at 17.5 g/ha,"[2]; 504 h, 21 DAA, 17.5 gai/ha, read-out: Visual Weed Control (%) Obs",0%
same,pest or weed control at 17.5 g/ha,"[2]; 504 h, 21 DAA, 17.5 gai/ha, second series, read-out: Visual Weed Control (%) Obs",0%
same,pest or weed control at 35 g/ha,"[2]; 504 h, 21 DAA, 35 gai/ha, second series, read-out: Visual Weed Control (%) Obs",0%
"COC(=O)c1ccccc1S(=O)(=O)NC(=O)Nc1nc(C)nc(OC)n1 [Metsulfuron-methyl, methyl 2-[[[[(4-methoxy-6-methyl-1,3,5-triazin-2-yl)amino]carbonyl]amino]sulfonyl]benzoate, reference compound]",pest or weed control at 7.5 g/ha,"[2]; 480 h, 20 DAA, 7.5 gai/ha, read-out: Visual Weed Control (%) Obs",0%
same,pest or weed control at 15 g/ha,"[2]; 480 h, 20 DAA, 15 gai/ha, read-out: Visual Weed Control (%) Obs",20%
COc1c(Cl)ccc(-c2nc(C(=O)OCc3ccccc3)c(Cl)c(N)c2F)c1F [Compound A Benzyl Ester],Visual Weed Control (%) Obs,"[1]; 21 DAA, 4.38 gae/ha",10%
same,pest or weed control at 4.38 g/ha,"[2]; 480 h, read-out: Visual Weed Control (%) Obs, 20 DAA, 4.38 gae/ha",60%
same,pest or weed control at 8.75 g/ha,"[2]; 480 h, read-out: Visual Weed Control (%) Obs, 20 DAA, 8.75 gae/ha",75%
same,pest or weed control at 17.5 g/ha,"[2]; 480 h, read-out: Visual Weed Control (%) Obs, 20 DAA, 17.5 gae/ha",85%
same,pest or weed control at 4.38 g/ha,"[2]; 504 h, read-out: Visual Weed Control (%) Obs, 21 DAA, 4.38 gae/ha",50%
same,pest or weed control at 4.38 g/ha,"[2]; 504 h, read-out: Visual Weed Control (%) Obs, 21 DAA, 4.38 gae/ha, second series",50%
same,pest or weed control at 8.75 g/ha,"[2]; 504 h, read-out: Visual Weed Control (%) Obs, 21 DAA, 8.75 gae/ha",70%
same,pest or weed control at 8.75 g/ha,"[2]; 504 h, read-out: Visual Weed Control (%) Obs, 21 DAA, 8.75 gae/ha, second series",80%
same,pest or weed control at 17.5 g/ha,"[2]; 504 h, read-out: Visual Weed Control (%) Obs, 21 DAA, 17.5 gae/ha",80%
same,pest or weed control at 8 g/ha,"[2]; 528 h, read-out: Visual Weed Control (%) Obs, 22 DAA, 8 gae/ha",50%
same,pest or weed control at 16 g/ha,"[2]; 528 h, read-out: Visual Weed Control (%) Obs, 22 DAA, 16 gae/ha",90%
same,pest or weed control at 32 g/ha,"[2]; 528 h, read-out: Visual Weed Control (%) Obs, 22 DAA, 32 gae/ha",85%
"COCC(=O)OC(c1ncccc1S(=O)(=O)NC(=O)Nc1nc(OC)cc(OC)n1)C(C)F (stereo not drawn) [Flucetosulfuron, 1-[3-[[[[(4,6-dimethoxy-2-pyrimidinyl)amino]carbonyl]amino]sulfonyl]-2-pyridinyl]-2-fluoropropyl 2-methoxyacetate]",pest or weed control at 0.05 g/ha,"[2]; 504 h, 21 DAA, 0.05 gai/ha, read-out: Visual Weed Control (%) Obs",0%
same,pest or weed control at 0.1 g/ha,"[2]; 504 h, 21 DAA, 0.1 gai/ha, read-out: Visual Weed Control (%) Obs",0%
same,pest or weed control at 0.2 g/ha,"[2]; 504 h, 21 DAA, 0.2 gai/ha, read-out: Visual Weed Control (%) Obs",0%
same,pest or weed control at 1.7 g/ha,"[2]; 528 h, 22 DAA, 1.7 gai/ha, read-out: Visual Weed Control (%) Obs",0%
"COc1c(Cl)ccc(-c2nc(C(=O)O)c(Cl)c(N)c2F)c1F [Compound A Acid, 4-amino-3-chloro-5-fluoro-6-(4-chloro-2-fluoro-3-methoxy-phenyl)pyridine-2-carboxylic acid]",Visual Weed Control (%) Obs,"[1]; 21 DAA, 4.38 gae/ha",15%
same,Visual Weed Control (%) Obs,"[1]; 21 DAA, 8.75 gae/ha",50%
same,pest or weed control at 4.38 g/ha,"[2]; 480 h, 20 DAA, 4.38 gae/ha, read-out: Visual Weed Control (%) Obs",10%
same,pest or weed control at 4.38 g/ha,"[2]; 504 h, 21 DAA, 4.38 gae/ha, read-out: Visual Weed Control (%) Obs",40%
same,pest or weed control at 4.38 g/ha,"[2]; 504 h, 21 DAA, 4.38 gae/ha, second series, read-out: Visual Weed Control (%) Obs",50%

# From patent US8871681B2, “Herbicidal compositions comprising 4-amino-3-chloro-5-fluoro-6-(4-chloro-2-fluoro-3-methoxyphenyl) pyridine-2-carboxylic acid or a derivative thereof and certain sulfonylureas” (Dow AgroSciences LLC, priority 2012, dated 2014)
